As usually defined, the IC50 is the concentration that inhibits the measured activity by half. The low end stands for inhibition by little substance, the high end for a need for much substance.

Our source for the Kd and IC50 values is patent publication US7592478B2, “Ligand antagonists of RAR receptors and pharmaceutical/cosmetic applications thereof” (Galderma Research & Development, priority 2002, dated 2009).

Type in all cases: cell-based
The target of one assay is T1, RAR alpha (Homo sapiens, UniProt P10276).
T1 sequence (P10276 183-417 limits assumed): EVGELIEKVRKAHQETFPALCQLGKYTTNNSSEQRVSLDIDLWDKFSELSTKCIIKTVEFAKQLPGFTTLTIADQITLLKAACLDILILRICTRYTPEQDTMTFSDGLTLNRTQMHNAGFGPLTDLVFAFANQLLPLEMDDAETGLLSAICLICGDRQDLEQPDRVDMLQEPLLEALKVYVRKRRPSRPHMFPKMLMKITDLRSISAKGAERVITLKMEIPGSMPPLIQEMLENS
Kind of assay: Transactivation test (luciferase reporter, stably transfected HeLa cells), RAR alpha. Conditions: for Kd: Schild regression vs reference agonist 4-[2-(5,5,8,8-tetramethyl-5,6,7,8-tetrahydro-2-naphthyl)propenyl]benzoic acid, read-out: RAR alpha Kdapp; for IC50: at the reference agonist concentration that gives 80% activation. The method, then:
(§1) The activation of receptors with an agonist (activator) in HeLa cells leads to the expression of a reporter gene, luciferase, which, in the presence of a substrate, generates light. The activation of the receptors may thus be measured by quantifying the luminescence produced after incubating the cells in the presence of a reference agonist. The inhibitory products displace the agonist from its site, thus preventing activation of the receptor. The activity is measured by quantifying the reduction in light produced. This measurement makes it possible to determine the inhibitory activity of the compounds according to the invention.
(§2) In this study, a constant is determined which represents the affinity of the molecule for the receptor. Since this value can fluctuate depending on the basal activity and the expression of the receptor, it is referred to as the Kd apparent (KdApp).
(§3) To determine this constant, “crossed curves” of the test product against a reference agonist, 4-[2-(5,5,8,8-tetramethyl-5,6,7,8-tetrahydro-2-naphthyl)propenyl]benzoic acid, are performed in 96-well plates. The test product is used at 10 concentrations and the reference agonist at 7 concentrations. In each well, the cells are in contact with a concentration of the test product and a concentration of the reference agonist, 4-[2-(5,5,8,8-tetramethyl-5,6,7,8-tetrahydro-2-naphthyl)propenyl]benzoic acid. Measurements are also taken for the total agonist (4-[2-(5,5,8,8-tetramethyl-5,6,7,8-tetrahydro-2-naphthyl)propenyl]benzoic acid) and inverse agonist, 4-{(E)-3-[4-(4-tert-butylphenyl)-5,5,8,8-tetramethyl-5,6,7,8-tetrahydro-2-naphthyl]-3-oxopropenyl}benzoic acid, controls.
(§4) These crossed curves make it possible to determine the AC50 values (concentration at which 50% activation is observed) for the reference ligand at various concentrations of test product. These AC50 values are used to calculate the Schild regression by plotting a straight line corresponding to the Schild equation (“quantitation in receptor pharmacology” Terry P. Kenakin, Receptors and Channels, 2001, 7, 371-385).
(§5) In the case of an antagonist, an IC50 value (concentration that inhibits 50% of the activity) is calculated by plotting the curve of the product at the concentration of the reference ligand that gives 80% activation.
(§6) The HeLa cell lines used are stable transfectants containing the plasmids ERE-βGlob-Luc-SV-Neo (reporter gene) and RAR (α, β, γ) ER-DBD-puro. These cells are inoculated into 96-well plates at a rate of 10000 cells per well in 100 μl of DMEM medium without phenol red, and supplemented with 10% defatted calf serum. The plates are then incubated at 37° C. and 7% CO2 for 4 hours.
(§7) The various dilutions of the test products, of the reference ligand (4-[2-(5,5,8,8-tetramethyl-5,6,7,8-tetrahydro-2-naphthyl)propenyl]benzoic acid), of the 100% control (100 nM 4-[2-(5,5,8,8-tetramethyl-5,6,7,8-tetrahydro-2-naphthyl)propenyl]benzoic acid) and of the 0% control (500 nM 4-{(E)-3-[4-(4-tert-butylphenyl)-5,5,8,8-tetramethyl-5,6,7,8-tetrahydro-2-naphthyl]-3-oxopropenyl}benzoic acid) are added at a rate of 5 μl per well. The plates are then incubated for 18 hours at 37° C. and 7% CO2.
(§8) The culture medium is removed by turning over and 100 μl of a 1:1 PBS/luciferine mixture is added to each well. After 5 minutes, the plates are read using the luminescence reader.
A general note: In a reporter assay the amount or activity of a reporter protein is the signal.

The next assay has as its target T2, RAR gamma (Homo sapiens, UniProt P13631).
T2 sequence (P13631 185-419 limits assumed): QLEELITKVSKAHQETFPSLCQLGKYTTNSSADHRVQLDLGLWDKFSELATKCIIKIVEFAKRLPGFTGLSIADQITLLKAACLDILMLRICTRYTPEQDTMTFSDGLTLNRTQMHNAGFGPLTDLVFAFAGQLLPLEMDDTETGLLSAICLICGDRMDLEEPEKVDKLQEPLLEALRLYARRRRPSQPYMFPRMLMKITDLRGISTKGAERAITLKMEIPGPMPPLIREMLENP
Kind of assay: Transactivation test (luciferase reporter, stably transfected HeLa cells), RAR gamma. Conditions: for Kd: Schild regression vs reference agonist 4-[2-(5,5,8,8-tetramethyl-5,6,7,8-tetrahydro-2-naphthyl)propenyl]benzoic acid, read-out: RAR gamma Kdapp; for IC50: at the reference agonist concentration that gives 80% activation. The protocol:
as §1, §2, §3, §4, §5, §6, §7, §8

A further assay addresses T3, RAR beta (Homo sapiens, UniProt P10826).
T3 sequence (P10826 183-417 limits assumed): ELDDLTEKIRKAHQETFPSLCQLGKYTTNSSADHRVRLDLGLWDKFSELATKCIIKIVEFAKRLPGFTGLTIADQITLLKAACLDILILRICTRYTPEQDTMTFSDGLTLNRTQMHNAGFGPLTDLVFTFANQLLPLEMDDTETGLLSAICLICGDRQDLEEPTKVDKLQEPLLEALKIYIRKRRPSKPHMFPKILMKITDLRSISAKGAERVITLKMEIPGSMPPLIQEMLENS
Kind of assay: Transactivation test (luciferase reporter, stably transfected HeLa cells), RAR beta. The settings on record: for Kd: Schild regression vs reference agonist 4-[2-(5,5,8,8-tetramethyl-5,6,7,8-tetrahydro-2-naphthyl)propenyl]benzoic acid, read-out: RAR beta Kdapp; for IC50: at the reference agonist concentration that gives 80% activation. The protocol:
as §1, §2, §3, §4, §5, §6, §7, §8

Structures are written as SMILES.

With `Cc1ccc(C2=CCC(C)(C)c3cc([Se]C#Cc4ccc(C(=O)O)cc4)ccc32)cc1` [Example 1, 4-(8,8-Dimethyl-5-p-tolyl-7,8-dihydro-2-naphthylselanylethynyl)benzoic acid], the Kd at RAR alpha was found to be 30 nM; on RAR gamma, 2 nM; at RAR beta it was 8 nM. In addition, the IC50 at RAR alpha stood at 52.5 nM; at RAR gamma, 5 nM; on RAR beta, 12.8 nM.
For `Cc1ccc(C2=CCC(C)(C)c3cc([Se]C#Cc4ccc(C(=O)O)c(F)c4)ccc32)cc1` [Example 9, 4-(8,8-Dimethyl-5-p-tolyl-7,8-dihydro-2-naphthylselanylethynyl)-2-fluorobenzoic acid], the Kd is 120 nM on RAR alpha, 2 nM on RAR gamma and 8 nM on RAR beta. In addition, the IC50 amounted to 210 nM on RAR alpha, 5 nM on RAR gamma and 12.8 nM on RAR beta.
Turning to `CN(C)c1ccc(C2=CCC(C)(C)c3cc(C(O)C#Cc4ccc(C(=O)O)cc4)ccc32)cc1` (stereo not drawn) [Example 19, 4-{3-[5-(4-Dimethylaminophenyl)-8,8-dimethyl-7,8-dihydro-2-naphthyl]-3-hydroxyprop-1-ynyl}benzoic acid], the Kd at RAR alpha stood at 500 nM; at RAR gamma, 60 nM; on RAR beta it was 120 nM. Also, the half-inhibitory concentration (IC50) stood at 875 nM on RAR alpha, 150 nM at RAR gamma and 192 nM on RAR beta.
